Experimental data as given in PubChem BioAssay AID1963437 (Molecular Pharmacology Branch, DTP, NCI, 2024).

Test system: OVCAR-8 complex spheroid, growth inhibition
Assay: Anticancer human tumor OVCAR-8 cell line growth inhibition [Asc];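 note: spheroids exposed to agents for 7 days before readout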;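 for viability, T/C: percent viability relative to DMSO vehicle wells taken as 100%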
Details: for IC50: curve of first compound; for viability, T/C: stronger effect = lower value; active = viability on the fitted dose curve at most 10% of control; inactive = the rest
Method in brief: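 Complex solid-tumor spheroids incorporating human endothelial and mesenchymal stem cells received single agents or combinations over half-log dilution ranges anchored to clinical Cmax.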

[1] = second compound 0.0316 µM, first compound 0.000316 µM
[2] = second compound 0.0316 µM, first compound 0.001 µM
[3] = second compound 0.0316 µM, first compound 0.00316 µM
[4] = second compound 0.0316 µM, first compound 0.01 µM
[5] = second compound 0.0316 µM, first compound 0.0316 µM
[6] = second compound 0.0316 µM, first compound 0.1 µM
[7] = second compound 0.1 µM, first compound 0.000316 µM
[8] = second compound 0.1 µM, first compound 0.001 µM
[9] = second compound 0.1 µM, first compound 0.00316 µM
[10] = second compound 0.1 µM, first compound 0.01 µM
[11] = second compound 0.1 µM, first compound 0.0316 µM
[12] = second compound 0.1 µM, first compound 0.1 µM
[13] = second compound 0.316 µM, first compound 0.000316 µM
[14] = second compound 0.316 µM, first compound 0.001 µM
[15] = second compound 0.316 µM, first compound 0.00316 µM
[16] = second compound 0.316 µM, first compound 0.01 µM
[17] = second compound 0.316 µM, first compound 0.0316 µM
[18] = second compound 0.316 µM, first compound 0.1 µM
[19] = second compound 1 µM, first compound 0.000316 µM
[20] = second compound 1 µM, first compound 0.001 µM
[21] = second compound 1 µM, first compound 0.00316 µM
[22] = second compound 1 µM, first compound 0.01 µM
[23] = second compound 1 µM, first compound 0.0316 µM
[24] = second compound 1 µM, first compound 0.1 µM
[25] = second compound 3.16 µM, first compound 0.00316 µM
[26] = second compound 3.16 µM, first compound 0.01 µM
[27] = second compound 3.16 µM, first compound 0.0316 µM
[28] = second compound 3.16 µM, first compound 0.1 µM
[29] = second compound 10 µM, first compound 0.00316 µM
[30] = second compound 10 µM, first compound 0.01 µM
[31] = second compound 10 µM, first compound 0.0316 µM
[32] = second compound 10 µM, first compound 0.1 µM

Cn1ncnc1[C@H]1c2n[nH]c(=O)c3cc(F)cc(c23)N[C@@H]1c1ccc(F)cc1 + Cc1c(S(C)(=O)=O)c(-c2cc(F)cc(N3CCN(c4ccc(NS(=O)(=O)c5ccc(NC(CCN6CCC(C(=O)OCCCP(=O)(O)O)CC6)CSc6ccccc6)c(S(=O)(=O)C(F)(F)F)c5)cc4)CC3)c2)c(-c2ccc(Cl)cc2)n1C(C)C
> 100 nM: IC50 (second compound 0.0316 µM) | IC50 (second compound 0.1 µM) | IC50 (second compound 0.316 µM) | IC50 (second compound 1 µM) | IC50 (second compound 3.16 µM) | IC50 (second compound 10 µM)
inactive: viability, T/C [1] 96.3% | viability, T/C [2] 94.8% | viability, T/C [3] 90% | viability, T/C [4] 103% | viability, T/C [5] 127% | viability, T/C [6] 149% | viability, T/C [7] 103% | viability, T/C [8] 106% | viability, T/C [9] 115% | viability, T/C [10] 123% | viability, T/C [11] 123% | viability, T/C [12] 155% | viability, T/C [13] 122% | viability, T/C [14] 101% | viability, T/C [15] 111% | viability, T/C [16] 101% | viability, T/C [17] 141% | viability, T/C [18] 158% | viability, T/C [19] 106% | viability, T/C [20] 109% | viability, T/C [21] 106% | viability, T/C [22] 110% | viability, T/C [23] 125% | viability, T/C [24] 160% | viability, T/C (second compound 3.16 µM, first compound 0.000316 µM) 130% | viability, T/C (second compound 3.16 µM, first compound 0.001 µM) 120% | viability, T/C [25] 92.8% | viability, T/C [26] 115% | viability, T/C [27] 138% | viability, T/C [28] 161% | viability, T/C (second compound 10 µM, first compound 0.000316 µM) 124% | viability, T/C (second compound 10 µM, first compound 0.001 µM) 93.1% | viability, T/C [29] 88.3% | viability, T/C [30] 127% | viability, T/C [31] 169% | viability, T/C [32] 164%

Cn1ncnc1[C@H]1c2n[nH]c(=O)c3cc(F)cc(c23)N[C@@H]1c1ccc(F)cc1 + CNC(C)C(=O)NC1CN(S(=O)(=O)c2cccc(S(=O)(=O)N3CCC4CCC(C(=O)NC(c5ccccc5)c5ccccc5)N4C(=O)C(NC(=O)C(C)NC)C3)c2)CCC2CCC(C(=O)NC(c3ccccc3)c3ccccc3)N2C1=O
< 0.316 nM: IC50 (second compound 0.00316 µM)
active: viability, T/C (second compound 0.00316 µM, first compound 0.000316 µM) 1.94% | viability, T/C (second compound 0.00316 µM, first compound 0.001 µM) 1.14% | viability, T/C (second compound 0.00316 µM, first compound 0.00316 µM) 0.66% | viability, T/C (second compound 0.00316 µM, first compound 0.01 µM) 1.15% | viability, T/C (second compound 0.00316 µM, first compound 0.0316 µM) 0.71% | viability, T/C (second compound 0.00316 µM, first compound 0.1 µM) 0.74%
inactive: viability, T/C (second compound 0.01 µM, first compound 0.000316 µM) 106% | viability, T/C (second compound 0.01 µM, first compound 0.001 µM) 100% | viability, T/C (second compound 0.01 µM, first compound 0.00316 µM) 102% | viability, T/C (second compound 0.01 µM, first compound 0.01 µM) 109% | viability, T/C (second compound 0.01 µM, first compound 0.0316 µM) 104% | viability, T/C (second compound 0.01 µM, first compound 0.1 µM) 120% | viability, T/C [1] 91.7% | viability, T/C [2] 106% | viability, T/C [3] 91.9% | viability, T/C [4] 97.1% | viability, T/C [5] 99.9% | viability, T/C [6] 95.5% | viability, T/C [7] 106% | viability, T/C [8] 101% | viability, T/C [9] 87.2% | viability, T/C [10] 95.1% | viability, T/C [11] 98.9% | viability, T/C [12] 94.6% | viability, T/C [13] 76.5% | viability, T/C [14] 79.7% | viability, T/C [15] 84.5% | viability, T/C [16] 107% | viability, T/C [17] 97.6% | viability, T/C [18] 85.4% | viability, T/C [19] 69.5% | viability, T/C [20] 81.3% | viability, T/C [21] 94.9% | viability, T/C [22] 86.4% | viability, T/C [23] 96.2% | viability, T/C [24] 95.5%
> 100 nM: IC50 (second compound 0.01 µM) | IC50 (second compound 0.0316 µM) | IC50 (second compound 0.1 µM) | IC50 (second compound 0.316 µM) | IC50 (second compound 1 µM)

COc1c(OCCCN2CCOCC2)ccc2c3n(c(=NC(=O)c4cnc(N)nc4)nc12)CCN3 + Cc1c(S(C)(=O)=O)c(-c2cc(F)cc(N3CCN(c4ccc(NS(=O)(=O)c5ccc(NC(CCN6CCC(C(=O)OCCCP(=O)(O)O)CC6)CSc6ccccc6)c(S(=O)(=O)C(F)(F)F)c5)cc4)CC3)c2)c(-c2ccc(Cl)cc2)n1C(C)C
inactive: viability, T/C [3] 114% | viability, T/C [4] 104% | viability, T/C [5] 128% | viability, T/C [6] 150% | viability, T/C (second compound 0.0316 µM, first compound 0.316 µM) 149% | viability, T/C (second compound 0.0316 µM, first compound 1 µM) 82.2% | viability, T/C [9] 100% | viability, T/C [10] 107% | viability, T/C [11] 142% | viability, T/C [12] 161% | viability, T/C (second compound 0.1 µM, first compound 0.316 µM) 145% | viability, T/C (second compound 0.1 µM, first compound 1 µM) 85.9% | viability, T/C [15] 91.6% | viability, T/C [16] 121% | viability, T/C [17] 154% | viability, T/C [18] 146% | viability, T/C (second compound 0.316 µM, first compound 0.316 µM) 140% | viability, T/C (second compound 0.316 µM, first compound 1 µM) 85.8% | viability, T/C [21] 114% | viability, T/C [22] 119% | viability, T/C [23] 167% | viability, T/C [24] 181% | viability, T/C (second compound 1 µM, first compound 0.316 µM) 142% | viability, T/C (second compound 1 µM, first compound 1 µM) 82.8% | viability, T/C [25] 144% | viability, T/C [26] 98.8% | viability, T/C [27] 136% | viability, T/C [28] 170% | viability, T/C (second compound 3.16 µM, first compound 0.316 µM) 135% | viability, T/C (second compound 3.16 µM, first compound 1 µM) 64.2% | viability, T/C [29] 131% | viability, T/C [30] 141% | viability, T/C [31] 146% | viability, T/C [32] 189% | viability, T/C (second compound 10 µM, first compound 0.316 µM) 143% | viability, T/C (second compound 10 µM, first compound 1 µM) 76.2%
> 1000 nM: IC50 (second compound 0.0316 µM) | IC50 (second compound 0.1 µM) | IC50 (second compound 0.316 µM) | IC50 (second compound 1 µM) | IC50 (second compound 3.16 µM) | IC50 (second compound 10 µM)
